Data published in PMC12108424, “Genetically Modified Mesenchymal Stromal/Stem Cells as a Delivery Platform for SE-33, a Cathelicidin LL-37 Analogue: Preclinical Pharmacokinetics and Tissue Distribution in C57BL/6 Mice” (Antibiotics, 2025).
Where no end group is shown, it is not given here.

Experiments:
in vivo [1] = assay: in vivo; parameters: species or system C57BL/6 mice; conditions: iv
Procedure: (§1) The studies were conducted on sexually mature male C57BL/6 mice with an average body weight of 20 g and an age of 8 weeks. The animals were sourced from the “Andreevka”, branch of the Scientific Center of Biomedical Technologies of the Russian Federal Medical and Biological Agency (Russia). The mice underwent a 14-day acclimatization period. The animals were housed in individually ventilated polysulfone cages ISO RAIR 4 × 8 (LabProducts, Aberdeen, WA, USA) with Rehofix MK2000 corn cob bedding (J. Rettenmaier and Söhne GmbH, Rosenberg, Germany). The animal housing environment followed a 12-h light/dark cycle with an ad libitum access to water and standard laboratory feed. The group assignment was based on body weight, ensuring a no more than 10% deviation from the average group weight. All experimental procedures were approved by the Local Ethics Committee (LEC) of the Federal State Budgetary Educational Institution of Higher Education “Privolzhsky Research Medical University” Ministry of Health of the Russian Federation (Protocol No. 06, dated 29 April 2022) and adhered to the guidelines for the care and use of laboratory animals.
(§2) Immediately prior to administration, WJ-MSC-SE33 cells were resuspended in a saline solution (0.9% NaCl). The mice were divided into groups (n = 48) and fasted for 8 h before intravenous injection. The injection volume was calculated based on body weight. Single-dose administrations were 1 × 10^5 cells/mouse (0.5 × 10^7 cells/kg), 2.5 × 10^5 cells/mouse (1.25 × 10^7 cells/kg), and 5 × 10^5 cells/mouse (2.5 × 10^7 cells/kg) (Figure 4B). Repeated administrations were conducted on days 1, 3, and 5 at a dose of 1 × 10^5 cells/mouse (Figure 4B).
Blood samples were collected from the subclavian artery at 4, 8, 12, 16, 20, 24, 36, and 48 h post-administration (n = 6 animals/time point) (Figure 1B). […] The 0 h time point represents samples obtained from animals prior to WJ-MSC-SE33 injection (pre-dose baseline). SE-33 concentrations at baseline were established as 0 μg/mL since the peptide was undetectable (<LLOQ) in all pre-dose samples, confirming the absence of endogenous expression. Blood samples were collected into tubes without an anticoagulant and centrifuged at 3000 rpm for 15 min at room temperature. Then, serum samples were isolated and placed in cryovials. Samples of peripheral tissues (lungs, liver, and spleen) were collected at similar time points. Blood and tissue samples were stored at −79 °C.
(§3) Thawed mouse serum was centrifuged at 12,000 rpm for 30 min using a MiniSpin centrifuge (Eppendorf, Hamburg, Germany). The supernatant was collected and diluted 20-fold with 20 mM TrisHCl (pH 7.8). For peripheral tissue samples, 100 mg of thawed tissue was weighed using Sartorius CPA225D scales (Sartorius, Göttingen, Germany) and homogenized in 1.6 mL of acidified ethanol (0.5 mL HCl in 1000 mL ethanol) using a Heidolph Diax 100 homogenizer (Heidolph Instruments, Schwabach, Germany) at 25,000 rpm on ice for 1 min. The homogenate was centrifuged at 12,000 rpm for 30 min. The supernatant was collected and diluted 20-fold with 20 mM Tris-HCl (pH 7.8).
(§4) To construct a protein that specifically binds to the SE-33 peptide ([…]), a complementary sequence with a high affinity to the SE-33 was calculated using the Antimicrobial Peptide Database APD3 [94, 95]. The sequence was cloned into a plasmid and expressed in E. coli strain BL21(DE3). The protein was then isolated and purified using a Ni-NTA column. Purified protein was conjugated with Epoxy-activated Sepharose 6B, creating a sorbent (Epoxy-Protein Sepharose) with a binding capacity of 240 μg/mL for the SE-33 peptide.
(§5) A column containing 5 mL of Epoxy-Protein Sepharose was equilibrated with 20 mM TrisHCl (pH 7.8). The sample was applied to the column via a 2 mL loop, followed by washing with 25 mL of 20 mM TrisHCl (pH 7.8). The SE-33 peptide was eluted with 5 mL of 75 mM NaCl in 20 mM TrisHCl (pH 7.8) without fractionation. […]

in vivo [2] = assay: in vivo; parameters: species or system C57BL/6 mice
Procedure: as §1, §2
The 0 h time point represents samples obtained from animals prior to WJ-MSC-SE33 injection (pre-dose baseline). SE-33 concentrations at baseline were established as 0 μg/mL since the peptide was undetectable (<LLOQ) in all pre-dose samples, confirming the absence of endogenous expression. Blood samples were collected into tubes without an anticoagulant and centrifuged at 3000 rpm for 15 min at room temperature. Then, serum samples were isolated and placed in cryovials. Samples of peripheral tissues (lungs, liver, and spleen) were collected at similar time points. Blood and tissue samples were stored at −79 °C.
as §3, §4
as §5, with “fractionation. The eluate enriched with the SE-33 peptide was subjected to solid-phase extraction.” for “fractionation.”

S. aureus = system: S. aureus; parameters: method as in PMID 38391576, doi:10.1134/S1068162019020158, PMID 40072070; conditions: in vitro; cited from earlier work
fungi and yeast = system: fungi and yeast; parameters: method as in PMID 38391576, doi:10.1134/S1068162019020158, PMID 40072070; conditions: in vitro; cited from earlier work
E. coli = system: E. coli; parameters: method as in PMID 38391576, doi:10.1134/S1068162019020158, PMID 40072070; conditions: in vitro; cited from earlier work
[3] = parameters: species or system C57BL/6 mice; conditions: mouse, in vivo
Procedure: The tissue availability and distribution of SE-33 peptide were further assessed using the following parameters: fT: tissue penetration factor. This parameter reflects the ratio of drug exposure in tissues relative to plasma or serum and is used to assess antimicrobial drug distribution at the target site and to guide therapy selection. In this study, fT was calculated using the following equation:(4) fT=AUC0–t(tissue)/AUC0–t(serum) This approach, commonly applied in evaluating drug distribution within extravascular compartments, particularly for antimicrobial agents, is consistent with its established definition in pharmacokinetics as the tissue-to-plasma AUC ratio [99, 100].

Which AUC (in vivo [1]; male, C57BL/6, mouse) does the source give for “SETRPVLNRLFDKIRQVRKEFGKIKEKSRKFM [SE-33]” here?
The AUC was 8210 ng·h/mL.

And the AUC(0-inf) (in vivo [1]; male, C57BL/6, mouse)?
The AUC(0-inf) was 8050 ng·h/mL.

What about the Cmax (in vivo [1]; male, C57BL/6, mouse) of the same sequence?
Its Cmax is 233 ng/mL.

And the Tmax (in vivo [1]; male, C57BL/6, mouse)?
Its Tmax is 8 h.

What about the half-life (in vivo [1]; male, C57BL/6, mouse) of the same sequence?
The half-life was 23.1 h.

What about the MRT (in vivo [1]; male, C57BL/6, mouse, MRT4–24) of the same sequence?
Its MRT is 34.2 h.

What about the MRT (in vivo [1]; male, C57BL/6, mouse, MRT4–∞) of the same sequence?
The MRT was 31.4 h.

And the Tmax (in vivo [1]; mouse)?
The Tmax was 4 h.

And the AUC(0-t) (in vivo [2]; male, C57BL/6, mouse, iv)?
Its AUC(0-t) is 2010 ng·h/mL.

What about the Tmax (in vivo [2]; male, C57BL/6, mouse, iv) of the same sequence?
The Tmax was 8 h.

And the Cmax (in vivo [2]; male, C57BL/6, mouse, iv, Cmax)?
The Cmax was 142 ng/mL.

What about the MRT (in vivo [2]; male, C57BL/6, mouse, iv, MRT0–∞) of the same sequence?
Its MRT is 10.4 h.

And the half-life (in vivo [2]; male, C57BL/6, mouse, iv, T1/2 (elimination half-life))?
Its half-life is 4.8 h.

What about the “persistence of the peptide in tissues” value (in vivo [2]; mouse) of the same sequence?
Its value is “up to 48 h”.

What about the “SE-33 concentration at 8 h” value (in vivo [2]; mouse, iv) of the same sequence?
The value was 0.043 μg/mL.

What about the “SE-33 level in liver exceeding that in the lungs” value (in vivo [2]; mouse, iv) of the same sequence?
Its value is 4 fold.

What about the “SE-33 levels within 2 h post-intravenous administration” value (in vivo [2]; mouse, iv) of the same sequence?
The value was “no detectable SE-33 levels”.

And the “minimum inhibitory concentration (MIC)” value (S. aureus)?
Its value is 12.5 µg/mL.

What about the “minimum inhibitory concentration (MIC)” value (fungi and yeast) of the same sequence?
Its value is 31.2 to 1024 µg/mL.

What about the “minimum bactericidal concentration (MBC)” value (E. coli) of the same sequence?
The value was 20 µg/mL.

And the “increase of fT relative to the highest single dose” value [3]?
Its value is 20.0%.

And the “rise of fT” value [3]?
The value was 25.0%.
